# Experimental data reported in patent US20090311217A1, “3-SUBSTITUTED-1H-INDOLE COMPOUNDS, THEIR USE AS MTOR KINASE AND PI3 KINASE INHIBITORS, AND THEIR SYNTHESES” (priority 2008, published 2009).
# Key:
# Assay type in all cases: biochemical
# [1] = target: PI3K-alpha (Homo sapiens, UniProt P42336); assay: PI3K-alpha fluorescence polarization assay; details: read-out: PI3Kα Avg. IC50
# [2] = target: PI3K-gamma (Homo sapiens, UniProt P48736); assay: PI3K-gamma fluorescence polarization assay; details: PI3Kγ Avg. IC50
# Method in brief: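 Reactions in 5 mM HEPES pH 7, 2.5 mM MgCl2, 25 μM ATP with 2.5 μM diC8-PI(4,5)P2 and 5 ng enzyme, 1 h at 25° C, then EDTA quench. Product detected by FP using GST-GRP1 PH domain (100 nM) and BODIPY-TMR-IP4 tracer (5 nM); final DMSO 0.8%.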
# [3] = target: T1, human TOR (Homo sapiens, UniProt P42345); assay: mTOR enzyme assay (DELFIA, His6-S6K substrate); details: read-out: mTOR Kinase Avg. IC50
# T1 construct: FLAG
# Chain of PI3K-alpha (P42336 whole entry, species assumed): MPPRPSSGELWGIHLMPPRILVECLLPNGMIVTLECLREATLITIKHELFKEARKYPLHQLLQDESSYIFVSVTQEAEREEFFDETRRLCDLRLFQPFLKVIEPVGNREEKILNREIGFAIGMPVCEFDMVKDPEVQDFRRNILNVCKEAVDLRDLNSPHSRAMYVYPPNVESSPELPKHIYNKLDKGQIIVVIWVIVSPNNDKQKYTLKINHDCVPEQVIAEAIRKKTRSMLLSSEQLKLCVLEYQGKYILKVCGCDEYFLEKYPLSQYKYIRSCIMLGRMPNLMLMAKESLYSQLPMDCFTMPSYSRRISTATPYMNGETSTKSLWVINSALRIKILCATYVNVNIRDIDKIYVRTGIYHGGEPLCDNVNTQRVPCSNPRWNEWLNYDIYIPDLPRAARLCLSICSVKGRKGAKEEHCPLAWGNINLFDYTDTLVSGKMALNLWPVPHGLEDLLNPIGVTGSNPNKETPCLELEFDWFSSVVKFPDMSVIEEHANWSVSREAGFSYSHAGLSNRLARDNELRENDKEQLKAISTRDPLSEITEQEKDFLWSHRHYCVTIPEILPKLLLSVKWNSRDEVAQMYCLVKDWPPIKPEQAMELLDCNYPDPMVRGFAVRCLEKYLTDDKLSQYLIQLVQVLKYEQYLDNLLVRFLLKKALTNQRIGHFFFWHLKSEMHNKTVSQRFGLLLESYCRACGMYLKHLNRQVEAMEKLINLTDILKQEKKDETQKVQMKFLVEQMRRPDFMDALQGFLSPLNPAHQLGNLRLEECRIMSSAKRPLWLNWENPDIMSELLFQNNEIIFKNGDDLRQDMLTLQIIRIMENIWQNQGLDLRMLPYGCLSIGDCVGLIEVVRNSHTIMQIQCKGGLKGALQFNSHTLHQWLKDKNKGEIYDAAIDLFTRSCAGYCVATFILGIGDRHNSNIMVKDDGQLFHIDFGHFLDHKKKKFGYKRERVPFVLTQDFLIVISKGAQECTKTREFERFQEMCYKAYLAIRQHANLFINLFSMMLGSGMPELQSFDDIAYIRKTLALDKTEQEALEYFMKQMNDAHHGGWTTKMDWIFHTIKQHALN
# Chain of PI3K-alpha (P27986 whole entry partner, species assumed): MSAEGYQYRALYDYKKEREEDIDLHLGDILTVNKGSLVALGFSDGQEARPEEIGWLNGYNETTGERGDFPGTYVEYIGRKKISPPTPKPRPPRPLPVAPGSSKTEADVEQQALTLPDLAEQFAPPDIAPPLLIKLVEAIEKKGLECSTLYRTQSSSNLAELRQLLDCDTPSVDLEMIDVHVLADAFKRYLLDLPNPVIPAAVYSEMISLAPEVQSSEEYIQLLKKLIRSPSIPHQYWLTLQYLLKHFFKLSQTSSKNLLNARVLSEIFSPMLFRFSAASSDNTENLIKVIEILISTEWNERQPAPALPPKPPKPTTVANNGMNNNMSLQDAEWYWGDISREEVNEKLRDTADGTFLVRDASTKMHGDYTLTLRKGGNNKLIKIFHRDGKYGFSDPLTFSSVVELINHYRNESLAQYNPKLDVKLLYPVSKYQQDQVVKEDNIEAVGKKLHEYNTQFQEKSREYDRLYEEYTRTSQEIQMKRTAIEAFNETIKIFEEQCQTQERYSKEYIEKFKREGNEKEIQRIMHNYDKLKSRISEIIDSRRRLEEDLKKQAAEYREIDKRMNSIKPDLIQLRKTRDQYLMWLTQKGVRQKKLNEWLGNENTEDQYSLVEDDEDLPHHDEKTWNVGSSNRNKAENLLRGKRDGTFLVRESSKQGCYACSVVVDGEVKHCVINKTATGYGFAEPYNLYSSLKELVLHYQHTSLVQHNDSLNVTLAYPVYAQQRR
# Chain of PI3K-gamma (P48736 whole entry, species assumed, the tested form may be a part): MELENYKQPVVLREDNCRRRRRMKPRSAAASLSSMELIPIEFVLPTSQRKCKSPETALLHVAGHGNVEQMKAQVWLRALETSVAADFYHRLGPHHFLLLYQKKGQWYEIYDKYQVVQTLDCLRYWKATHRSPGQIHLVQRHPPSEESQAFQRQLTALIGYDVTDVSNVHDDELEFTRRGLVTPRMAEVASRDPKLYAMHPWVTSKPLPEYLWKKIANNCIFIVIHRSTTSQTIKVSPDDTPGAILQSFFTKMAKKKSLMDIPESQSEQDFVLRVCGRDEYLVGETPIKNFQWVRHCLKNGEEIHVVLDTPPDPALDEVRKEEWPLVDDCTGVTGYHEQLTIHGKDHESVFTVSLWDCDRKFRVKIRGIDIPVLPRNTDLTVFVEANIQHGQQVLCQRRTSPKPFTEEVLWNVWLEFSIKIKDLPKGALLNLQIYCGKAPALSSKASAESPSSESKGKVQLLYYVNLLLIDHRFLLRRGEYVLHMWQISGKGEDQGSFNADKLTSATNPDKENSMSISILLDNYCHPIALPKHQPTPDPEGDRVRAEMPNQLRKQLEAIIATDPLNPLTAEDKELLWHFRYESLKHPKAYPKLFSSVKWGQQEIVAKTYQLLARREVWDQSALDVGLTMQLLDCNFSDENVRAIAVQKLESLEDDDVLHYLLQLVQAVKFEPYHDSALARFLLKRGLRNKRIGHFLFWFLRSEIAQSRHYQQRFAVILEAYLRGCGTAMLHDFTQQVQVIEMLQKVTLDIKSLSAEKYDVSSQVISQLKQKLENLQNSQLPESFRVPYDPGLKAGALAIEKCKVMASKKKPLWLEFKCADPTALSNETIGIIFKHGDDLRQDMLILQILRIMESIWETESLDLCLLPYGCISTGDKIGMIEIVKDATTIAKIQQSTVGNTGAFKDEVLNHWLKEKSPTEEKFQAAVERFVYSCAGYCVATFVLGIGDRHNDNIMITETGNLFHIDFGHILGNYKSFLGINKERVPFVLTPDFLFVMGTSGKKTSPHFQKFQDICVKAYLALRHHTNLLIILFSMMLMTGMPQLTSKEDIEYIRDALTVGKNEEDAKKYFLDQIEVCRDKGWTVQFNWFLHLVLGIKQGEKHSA
IC50 [1] [nM],IC50 [2] [nM],IC50 [3] [nM],Structure (SMILES)
1600,> 10000,< 23,"Cn1c(-c2ccccc2)c(/C=C2\Oc3cc(O)cc(O)c3C2=O)c2c(C#N)cccc21 [Example 437, 3-[(Z)-(4,6-dihydroxy-3-oxo-1-benzofuran-2(3H)-ylidene)methyl]-1-methyl-2-phenyl-1H-indole-4-carbonitrile]"
2980,9000,> 20000,"CN1CCN(CCn2cc(/C=C3\Oc4cc(O)cc(O)c4C3=O)c3c(-c4ccc(N(C)C)cc4)cccc32)CC1 [Example 438, (2Z)-2-({4-[4-(Dimethylamino)phenyl]-1-[2-(4-methylpiperazin-1-yl)ethyl]-1H-indol-3-yl}methylene)-4,6-dihydroxy-1-benzofuran-3(2H)-one]"
4280,> 10000,33.8,"CN1CCN(c2cccc3c2c(/C=C2\Oc4cc(O)cc(O)c4C2=O)cn3C)CC1 [Example 439, (2Z)-4,6-dihydroxy-2-{[1-methyl-4-(4-methylpiperazin-1-yl)-1H-indol-3-yl]methylene}-1-benzofuran-3(2H)-one]"
> 10000,> 10000,> 20000,"Cn1cc(/C=C2\Oc3cccc(O)c3C2=O)c2ccccc21 [Example 441, (2Z)-4-Hydroxy-2-[(1-methyl-1H-indol-3-yl)methylene]benzofuran-3(2H)-one]"
> 5100,> 5100,> 20000,"Cn1c(-c2ccccc2)c(/C=C2\Oc3cccc(O)c3C2=O)c2ccccc21 [Example 442, (2Z)-4-Hydroxy-2-[(1-methyl-2-phenyl-1H-indol-3-yl)methylene]benzofuran-3(2H)-one]"
> 5100,> 5100,1240,"Cn1cc(/C=C2\Oc3cc(O)ccc3C2=O)c2c(-c3ccccc3)cccc21 [Example 443, (2Z)-6-Hydroxy-2-((1-methyl-4-phenyl-1H-indol-3-yl)methylene)benzofuran-3(2H)-one]"
65.5,100,12.3,"COc1ccc2c(c1)c(/C=C1\Oc3cc(O)cc(O)c3C1=O)c(C1CC1)n2CC(=O)N(C)C [Example 444, 2-{2-Cyclopropyl-3-[(Z)-(4,6-dihydroxy-3-oxo-1-benzofuran-2(3H)-ylidene)methyl]-5-methoxy-1H-indol-1-yl}-N,N-dimethylacetamide]"
3.5,81,3.75,"COc1ccc2c(c1)c(/C=C1\Oc3cc(O)cc(O)c3C1=O)c(C1CCC1)n2CCN1CCN(C)CC1 [Example 446, (2Z)-2-({2-Cyclobutyl-5-methoxy-1-[2-(4-methylpiperazin-1-yl)ethyl]-1H-indol-3-yl}methylene)-4,6-dihydroxy-1-benzofuran-3(2H)-one]"
1.7,105,1.3,"COc1ccc2c(c1)c(/C=C1\Oc3cc(O)cc(O)c3C1=O)c(C1CCCCC1)n2CCN1CCN(C)CC1 [Example 447, (2Z)-2-({2-Cyclohexyl-5-methoxy-1-[2-(4-methylpiperazin-1-yl)ethyl]-1H-indol-3-yl}methylene)-4,6-dihydroxy-1-benzofuran-3(2H)-one]"
142,5130,> 20000,"COc1ccc2c(c1)c(/C=C1\Oc3cc(O)c(Cl)cc3C1=O)c(C)n2CCCN(C)C [Example 448, (2Z)-5-Chloro-2-({1-[3-(dimethylamino)propyl]-5-methoxy-2-methyl-1H-indol-3-yl}methylene)-6-hydroxy-1-benzofuran-3(2H)-one]"
166,> 11000,> 20000,"COc1ccc2c(c1)c(/C=C1\Oc3c(ccc(O)c3F)C1=O)c(C)n2CCCN(C)C [Example 449, (2Z)-2-({1-[3-(Dimethylamino)propyl]-5-methoxy-2-methyl-1H-indol-3-yl}methylene)-7-fluoro-6-hydroxy-1-benzofuran-3(2H)-one]"
375,7740,> 20000,"COc1ccc2c(c1)c(/C=C1\Oc3c(ccc(O)c3Cl)C1=O)c(C)n2CCN1CCN(C)CC1 [Example 451, (2Z)-7-Chloro-6-hydroxy-2-({5-methoxy-2-methyl-1-[2-(4-methylpiperazin-1-yl)ethyl]-1H-indol-3-yl}methylene)-1-benzofuran-3(2H)-one]"
49.5,990,1950,"COc1ccc2c(c1)c(/C=C1\Oc3cc(O)ccc3C1=O)c(C)n2CCN1CCCC1 [Example 452, (2Z)-6-Hydroxy-2-{[5-methoxy-2-methyl-1-(2-pyrrolidin-1-ylethyl)-1H-indol-3-yl]methylene}-1-benzofuran-3(2H)-one]"
49.5,550,2200,"COc1ccc2c(c1)c(/C=C1\Oc3cc(O)ccc3C1=O)c(C)n2CCN1CCCC1C (stereo not drawn) [Example 453, (2Z)-6-Hydroxy-2-({5-methoxy-2-methyl-1-[2-(2-methylpyrrolidin-1-yl)ethyl]-1H-indol-3-yl}methylene)-1-benzofuran-3(2H)-one]"
32,517,1300,"COc1ccc2c(c1)c(/C=C1\Oc3cc(O)ccc3C1=O)c(C)n2CCN1CCCCC1 [Example 454, (2Z)-6-Hydroxy-2-{[5-methoxy-2-methyl-1-(2-piperidin-1-ylethyl)-1H-indol-3-yl]methylene}-1-benzofuran-3(2H)-one]"
39,612,1400,"COc1ccc2c(c1)c(/C=C1\Oc3cc(O)ccc3C1=O)c(C)n2CCN1CCC(C)CC1 [Example 455, (2Z)-6-Hydroxy-2-({5-methoxy-2-methyl-1-[2-(4-methylpiperidin-1-yl)ethyl]-1H-indol-3-yl}methylene)-1-benzofuran-3(2H)-one]"
90.5,4600,> 20000,"COc1ccc2c(c1)c(/C=C1\Oc3cc(O)c(Cl)cc3C1=O)c(C)n2CCN1CCN(C)CC1 [Example 456, (2Z)-5-Chloro-6-hydroxy-2-({5-methoxy-2-methyl-1-[2-(4-methylpiperazin-1-yl)ethyl]-1H-indol-3-yl}methylene)-1-benzofuran-3(2H)-one]"
74,5050,> 20000,"COc1ccc2c(c1)c(/C=C1\Oc3c(ccc(O)c3F)C1=O)c(C)n2CCN1CCN(C)CC1 [Example 457, (2Z)-7-Fluoro-6-hydroxy-2-({5-methoxy-2-methyl-1-[2-(4-methylpiperazin-1-yl)ethyl]-1H-indol-3-yl}methylene)-1-benzofuran-3(2H)-one]"
134,4350,> 20000,"COc1ccc2c(c1)c(/C=C1\Oc3cc(O)c(C)cc3C1=O)c(C)n2CCN1CCN(C)CC1 [Example 458, (2Z)-6-Hydroxy-2-({5-methoxy-2-methyl-1-[2-(4-methylpiperazin-1-yl)ethyl]-1H-indol-3-yl}methylene)-5-methyl-1-benzofuran-3(2H)-one]"
191,6690,> 20000,"COc1ccc2c(c1)c(/C=C1\Oc3cc(O)c(C)cc3C1=O)c(C)n2CCCN(C)C [Example 459, (2Z)-2-({1-[3-(Dimethylamino)propyl]-5-methoxy-2-methyl-1H-indol-3-yl}methylene)-6-hydroxy-5-methyl-1-benzofuran-3(2H)-one]"
18,1380,6500,"COc1ccc2c(c1)c(/C=C1\Oc3cc(O)ccc3C1=O)c(C)n2CCCN1CCC(C)CC1 [Example 460, (2Z)-6-Hydroxy-2-({5-methoxy-2-methyl-1-[3-(4-methylpiperidin-1-yl)propyl]-1H-indol-3-yl}methylene)-1-benzofuran-3(2H)-one]"
19.5,1060,12500,"COc1ccc2c(c1)c(/C=C1\Oc3cc(O)ccc3C1=O)c(C)n2CCCN1CCCC1C (stereo not drawn) [Example 461, (2Z)-6-Hydroxy-2-({5-methoxy-2-methyl-1-[3-(2-methylpyrrolidin-1-yl)propyl]-1H-indol-3-yl}methylene)-1-benzofuran-3(2H)-one]"
21.5,1050,635,"COc1ccc2c(c1)c(/C=C1\Oc3cc(O)ccc3C1=O)c(C1CC1)n2CCCN(C)C [Example 462, (2Z)-2-({2-Cyclopropyl-1-[3-(dimethylamino)propyl]-5-methoxy-1H-indol-3-yl}methylene)-6-hydroxy-1-benzofuran-3(2H)-one]"
51.5,971,2000,"COc1ccc2c(c1)c(/C=C1\Oc3cc(O)cc(O)c3C1=O)c(-c1cncnc1)n2CCN1CCN(C)CC1 [Example 463, (2Z)-4,6-Dihydroxy-2-({5-methoxy-1-[2-(4-methylpiperazin-1-yl)ethyl]-2-pyrimidin-5-yl-1H-indol-3-yl}methylene)-1-benzofuran-3(2H)-one]"
13.5,1450,37.5,"COc1ccc2c(c1)c(/C=C1\Oc3cc(O)cc(C)c3C1=O)c(C1CC1)n2CCN1CCN(C)CC1 [Example 464, (2Z)-2-({2-Cyclopropyl-5-methoxy-1-[2-(4-methylpiperazin-1-yl)ethyl]-1H-indol-3-yl}methylene)-6-hydroxy-4-methyl-1-benzofuran-3(2H)-one]"
29.5,475,> 20000,"COc1ccc2c(c1)c(/C=C1\Oc3cc(O)cc(F)c3C1=O)c(C)n2CCCN(C)C [Example 465, (2Z)-2-({1-[3-(Dimethylamino)propyl]-5-methoxy-2-methyl-1H-indol-3-yl}methylene)-4-fluoro-6-hydroxy-1-benzofuran-3(2H)-one]"
73,1270,7500,"COc1ccc2c(c1)c(/C=C1\Oc3cc(O)cc(Cl)c3C1=O)c(C)n2CCCN(C)C [Example 466, (2Z)-4-Chloro-2-({1-[3-(dimethylamino)propyl]-5-methoxy-2-methyl-1H-indol-3-yl}methylene)-6-hydroxy-1-benzofuran-3(2H)-one]"
